From US7326700B2, “Cyclohexenyl phenyl carboxamides tocolytic oxytocin receptor antagonists” (Wyeth, priority 2001, dated 2008)

Biological target: T1, human oxytocin receptor (Homo sapiens, UniProt P30559)
T1 construct: host or cells: CHO cells, stably transfected (pcDNA3.1 vector)
T1 sequence (P30559 1-389): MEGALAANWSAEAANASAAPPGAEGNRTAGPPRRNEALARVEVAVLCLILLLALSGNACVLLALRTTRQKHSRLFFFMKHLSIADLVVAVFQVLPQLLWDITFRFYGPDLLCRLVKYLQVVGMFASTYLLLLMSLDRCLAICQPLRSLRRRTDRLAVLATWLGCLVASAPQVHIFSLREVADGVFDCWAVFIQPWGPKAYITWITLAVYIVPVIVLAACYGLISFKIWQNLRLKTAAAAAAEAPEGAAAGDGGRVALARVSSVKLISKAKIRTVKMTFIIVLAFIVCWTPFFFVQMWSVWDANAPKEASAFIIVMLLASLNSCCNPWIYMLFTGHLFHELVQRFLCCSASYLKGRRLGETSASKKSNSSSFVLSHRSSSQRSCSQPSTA
Assay: Oxytocin binding in CHO cell membranes expressing human oxytocin receptors ([3H]oxytocin radioligand binding)
Conditions: 100 nM
Source text: Chinese Hamster Ovary (CHO) cells stably transfected with the human oxytocin recptor (cf. Tanizawa et al., U.S. Pat. No. 5,466,584 (1995) to Rohto Pharmaceutical Co. Ltd., Osaka, Japan) were obtained from M. Thibonnier, Case Western Reserve University School of Medicine, Cleveland, Ohio.
CHO cells transfected with the human oxytocin receptors obtained from M. Thibonnier (pcDNA3.1 vector) are allowed to grow to confluency (approx. >90%) in T-150 flasks under sterile conditions, in a cell culture medium consisting of F-12 Nutrient Mixture (HAM) with L-glutamine (Gibco Cat. #11765-054) containing 15 mM HEPES (Gibco Cat. #15630-080), 1% antibiotic/antimycotic (add 5 mL 1 00×, Gibco Cat. #15240-062 per 500 mL F-12), 400 μg/mL of Geneticin (add 4 mL of 50 mg/mL per 500 mL F-12) and 10% Fetal Bovine Serum (Qualified, heat inactivated, Gibco Cat. #16140-063). The medium is removed by aspiration and the cells are washed with 10 mL of Hank's Balanced Salt solution (Gibco Cat. #14175-095). The salt solution is removed by aspiration and the cells trypsinized with 5 mL of trypsin-EDTA (0.05% trypsin, 0.53 mM EDTA-4Na, Gibco Cat. #25300-070) for 1 min The trypsin is removed by aspiration and the cells dislodged by tapping. Cell Culture medium (e.g. 30 mL for 1:30 split) is immediately added and mixed well to inactivate trypsin. 1 mL of detached cells is added to new culture flasks containing fresh Cell Culture medium (e.g. into 25 mL per T-150 flask), and mixed gently. The cells are incubated at 37° C. in 5% CO2. The medium is changed at 3 to 4 days interval (or as appropriate). The cells grow to confluency (approx. >75%-95%) within 7-8 days. All steps are done under sterile conditions.
The cells are washed twice gently with Hank's Balanced Salt solution (eg, use 10 mL per T-150 flask). The excess solution is removed and the cells bathed for 15-30 min. in an enzyme-free Cell Dissociation Buffer (eg, use 8 mL Hank's Based, Gibco Cat. #13150-016 per T-150 flask) until cells are loosened. The contents are transferred to centrifuge tubes (50 mL size) kept in ice bath. All subsequent steps are done at 4° C. The tubes are centrifuged at 300×g for 15 min (1380 rpm on SORVAL, Model RT6000D, using rotor for 50 mL tubes). The supernatant is discarded and the cells suspended in homogenizing buffer (10 mM Tris-HCl containing 0.25 M sucrose and 1 mM EDTA, pH 7.4) ensuring that the volume of the buffer is about ten times the volume of the cell pellet. The cells are pooled into a centrifuge tube (50 mL) and homogenized with a Polytron at setting 6 for 10 sec. The homogenate is transferred into a Potter-Elvjehm homogenizer and homogenized with 3 strokes. The homogenate is centrifuged at 1500×g for 10 min at 4° C. (3100 rpm using SORVAL, model RT6000D, using rotor for 50 mL tubes). The pellet is discarded. The supernatant is centrifuged at 100,000×g for 60 min. at 4° C. (Beckman L8-80M ultracentrifuge; spin at 37,500 rpm with rotor type 70 Ti for 50 mL tubes; 38,000 rpm with type 80 Ti for 15 mL tubes; or 35,800 rpm with rotor type 45Ti). The supernantant is discarded and the pellet suspended in 3 to 4 mL of Tris buffer (50 mM TRIS-HCl, pH 7.4). The protein content is estimated by the Bradford or Lowry method. The volume of the membrane suspension is adjusted with the membrane buffer (50 mM Tris-HCl containing 0.1% BSA and 0.1 mM PMSF) to give 3.0 mg/mL (or as appropriate) of protein. The membranes are aliquoted and stored at −70° C.
In wells of a 96-well format microtiter plate, is added 90, 110 or 130 μL (to make up a final volume of 200 μL) of assay buffer containing 50 mM of Tris-HCl (pH 7.4), […], 1 mg % aprotinin, 1 mg % leupeptin, 2 mg % 1,10-phenanthroline, 10 mg % trypsin inhibitor, and 0.1 mM PMSF. The inhibitors are added on the day of the experiment. The components are mixed at room temperature, and then kept in ice bath following adjustment of the pH to 7.4. […]

| OT % inhibition @ 100 nM [%] | inhibition at 0.1 µM (read-out: OT % inhibition @ 100 nM) [%] | Compound |
| --- | --- | --- |
| 41 |  | Cc1cc(C(=O)N2Cc3ccc(C(=O)NCCCn4ccnc4)n3Cc3ccccc32)ccc1C1=CCCCC1 [Example 18, 10-[4-(1-Cyclohex-1-en-1-yl)-3-methylbenzoyl]-N-[3-(1H-imidazol-1-yl)propyl]10,11-dihydro-5H-pyrrolo[2,1-c][1,4]benzodiazepine-3-carboxamide] |
| 71 |  | Cc1cc(C(=O)N2Cc3ccc(C(=O)N4CCN(C(C)C)CC4)n3Cc3ccccc32)ccc1C1=CCCCC1 [Example 25, {10-[4-(1-Cyclohex-1-en-1-yl)-3-methylbenzoyl]-1 0,11-dihydro-5H-pyrrolo[2,1-c][1,4]benzodiazepin-3-yl}(4-isopropyl-1-piperazinyl)methanone] |
| 90 |  | Cc1cc(C(=O)N2Cc3ccc(C(=O)N4CCCN(C)CC4)n3Cc3ccccc32)ccc1C1=CCCCC1 [Example 13, {10-[4-(1-Cyclohex-1-en-1-yl)-3-methylbenzoyl]-10,11-dihydro-5H-pyrrolo[2,1-c][1,4]benzodiazepin-3-yl}(4-methyl-1,4-diazepan-1-yl)methanone] |
|  | 91 | CC1=C(c2ccc(C(=O)N3Cc4ccc(C(=O)N5CCN(C)CC5)n4Cc4ccccc43)cc2C)CCCC1O (centres unmarked) [Example 10, [4-(3-Hydroxy-2-methyl-cyclohex-1-en-1-yl)-3-methyl-phenyl]-[3-(4-methyl-piperazine-1carbonyl)-10,11-dihydro-5H-pyrrolo[2,1-c][1,4]benzodiazepin-10-yl]-methanone] |
| 100 |  | Cc1cc(C(=O)N2Cc3ccc(C(=O)N4CC[C@@H](N(C)C)C4)n3Cc3ccccc32)ccc1C1=CCCCC1 [Example 27, {10-[4-(1-Cyclohex-1-en-1-yl)-3-methylbenzoyl]-10,11-dihydro-5H-pyrrolo[2,1-c][1,4]benzodiazepin-3-yl}[(3R)-3-(dimethylamino)pyrrolidinyl]methanone] |
| 92 |  | Cc1cc(C(=O)N2Cc3ccc(C(=O)N4CCN(CCN(C)C)CC4)n3Cc3ccccc32)ccc1C1=CCCCC1 [Example 22, {10-[4-(1-Cyclohex-1-en-1-yl)-3-methylbenzoyl]-10,11-dihydro-5H-pyrrolo[2,1-c][1,4]benzodiazepin-3-yl}{4-[2-(dimethylamino)ethyl]-1-piperazinyl}methanone] |
| 52 |  | Cc1cc(C(=O)N2Cc3ccc(C(=O)NCCN4CCCCC4)n3Cc3ccccc32)ccc1C1=CCCCC1 [Example 20, 10-[4-(1-Cyclohex-1-en-1-yl)-3-methylbenzoyl]-N-[2-(1-piperidinyl)ethyl]-10,11-dihydro-5H-pyrrolo[2,1-c][1,4]benzodiazepine-3-carboxamide] |
| 101 |  | Cc1cc(C(=O)N2Cc3ccc(C(=O)N4CCC[C@H]4CN4CCCC4)n3Cc3ccccc32)ccc1C1=CCCCC1 [Example 26, {10-[4-(1-Cyclohex-1-en-1-yl)-3-methylbenzoyl]-10,11-dihydro-5H-pyrrolo[2,1-c][1,4]benzodiazepin-3-yl}[(2S)-2-(1-pyrrolidinylmethyl)pyrrolidinyl]methanone] |
